Measurements reported in ChEMBL document CHEMBL5046289, “Targeting the S2 Subsite Enables the Structure-Based Discovery of Novel Highly Selective Factor XIa Inhibitors” (J Med Chem, 2022).
The source made the active and inactive calls. The rule behind the calls is not given here.

How the values were obtained:
[1] = target: T1, Coagulation factor XI (Homo sapiens, UniProt P03951); test: Inhibition of coagulation factor XIa (unknown origin) assessed as chromogenic substrate hydrolysis using CS-21(66) as substrate incubated for 1 hr by spectrophotometer based microplate reader method
[2] = target: Plasma kallikrein (Homo sapiens, UniProt P03952); test: Inhibition of plasma kallikrein (unknown origin) assessed as chromogenic substrate hydrolysis using CS-31(02) as substrate incubated for 1 hr by spectrophotometer based microplate reader method
[3] = species on record: Homo sapiens; test: Selectivity index, ratio of IC50 for plasma kallikrein (unknown origin) to IC50 for coagulation factor XIa (unknown origin)
[4] = target: Coagulation factor X (Homo sapiens, UniProt P00742); test: Inhibition of coagulation factor Xa (unknown origin) assessed as chromogenic substrate using CS-11(22) as substrate incubated for 1 hr by spectrophotometer based microplate reader method
[5] = target: T2, Coagulation factor XII (Homo sapiens) (UniProt P00748); test: Inhibition of coagulation factor XIIa (unknown origin) assessed as chromogenic substrate using TH5253 as substrate at 1 mM incubated for 1 hr by spectrophotometer based microplate reader method
T2 sequence (whole entry): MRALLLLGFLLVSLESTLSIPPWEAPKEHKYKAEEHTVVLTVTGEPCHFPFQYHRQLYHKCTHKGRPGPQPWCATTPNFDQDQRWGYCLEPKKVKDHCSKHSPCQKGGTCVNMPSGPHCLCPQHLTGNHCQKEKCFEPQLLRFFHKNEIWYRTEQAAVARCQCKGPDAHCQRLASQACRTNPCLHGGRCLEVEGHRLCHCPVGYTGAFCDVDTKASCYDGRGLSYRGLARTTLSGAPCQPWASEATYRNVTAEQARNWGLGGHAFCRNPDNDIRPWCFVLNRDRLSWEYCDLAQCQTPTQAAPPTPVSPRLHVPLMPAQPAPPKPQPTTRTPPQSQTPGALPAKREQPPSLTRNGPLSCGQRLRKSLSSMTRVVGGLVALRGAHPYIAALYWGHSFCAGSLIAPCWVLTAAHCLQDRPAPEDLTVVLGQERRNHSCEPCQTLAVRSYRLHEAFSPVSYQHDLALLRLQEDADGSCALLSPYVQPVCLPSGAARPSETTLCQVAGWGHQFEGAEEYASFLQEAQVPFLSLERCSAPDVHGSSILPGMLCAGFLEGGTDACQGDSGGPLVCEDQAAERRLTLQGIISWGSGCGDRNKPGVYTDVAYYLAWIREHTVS

[6] = target: Coagulation factor IX (Homo sapiens) (UniProt P00740); test: Inhibition of coagulation factor IXa (unknown origin) assessed as chromogenic substrate using ADG299 as substrate at 1 mM incubated for 1 hr by spectrophotometer based microplate reader method
[7] = target: Serine protease 1 (Homo sapiens) (UniProt P07477); test: Inhibition of trypsin (unknown origin) assessed as chromogenic substrate using CS-11(22) as substrate at 1 mM incubated for 1 hr by spectrophotometer based microplate reader method
[8] = target: Prothrombin (Homo sapiens, UniProt P00734); test: Inhibition of thrombin (unknown origin) assessed as chromogenic substrate using CS-10(38) as substrate incubated for 1 hr by spectrophotometer based microplate reader method
[9] = species on record: Homo sapiens; test: Selectivity index, ratio of IC50 for coagulation factor Xa (unknown origin) to IC50 for coagulation factor XIa (unknown origin)
[10] = species on record: Homo sapiens; test: Selectivity index, ratio of IC50 for coagulation factor IXa (unknown origin) to IC50 for coagulation factor XIa (unknown origin)
[11] = species on record: Homo sapiens; test: Selectivity index, ratio of IC50 for coagulation factor VIIa (unknown origin) to IC50 for coagulation factor XIa (unknown origin)
[12] = species on record: Homo sapiens; test: Selectivity index, ratio of IC50 for trypsin (unknown origin) to IC50 for coagulation factor XIa (unknown origin)
[13] = species on record: Homo sapiens; test: Selectivity index, ratio of IC50 for thrombin (unknown origin) to IC50 for coagulation factor XIa (unknown origin)
[14] = AUC(0 to t) in Sprague-Dawley rat at 10 mg/kg, iv after 0.083 to 24 hrs by LC-MS/MS analysis; format: ADME, organism-based; set-up: route intravenous, time upper 24 hrs, time lower 0.083 hrs, dose 10 mg/kg; settings: in vivo
[15] = Clearance in Sprague-Dawley rat at 10 mg/kg, iv after 0.083 to 24 hrs by LC-MS/MS analysis; format: ADME, organism-based; settings: in vivo, time 0.083-24 hrs
[16] = AUC(0 to infinity) in Sprague-Dawley rat at 10 mg/kg, iv after 0.083 to 24 hrs by LC-MS/MS analysis; format: ADME, organism-based; set-up: route intravenous, dose 10 mg/kg, time upper 24 hrs, time lower 0.083 hrs; settings: in vivo
[17] = Apparent volume of distribution in Sprague-Dawley rat at 10 mg/kg, iv after 0.083 to 24 hrs by LC-MS/MS analysis; format: ADME, organism-based; settings: in vivo, time 0.083-24 hrs, read-out: Vz
[18] = MRT(0 to t) in Sprague-Dawley rat at 10 mg/kg, iv after 0.083 to 24 hrs by LC-MS/MS analysis; format: ADME, organism-based; settings: in vivo, time 0.083-24 hrs
[19] = test system: Mus musculus; test: Antithrombotic activity against FeCl3-induced carotid artery thrombosis C57BL/6J mouse model assessed as prolongation of occlusion time pretreated at 19.5 mg/kg, iv tail vein injection for 10 mins followed by FeCl3 addition for 3 mins and measured after 30 mins; format: functional, organism-based; settings: time 43.0 min
[20] = test system: Mus musculus; test: Antithrombotic activity in C57BL/6J mouse model of FeCl3-induced carotid artery thrombosis assessed as time of occlusion pretreated at 6.5 mg/kg for 10 mins followed by FeCl3 addition for 3 mins and measured after 30 mins; format: functional, organism-based
[21] = Acute toxicity in ICR mouse assessed as histological change in heart at 50 to 100 mg/kg, iv as single dose for 14 days by H and E staining method; format: organism-based; settings: in vivo, 336 h, dose 50-100 mg/kg, time 14 day
[22] = Acute toxicity in ICR mouse assessed as histological change in liver at 50 to 100 mg/kg, iv as single dose for 14 days by H and E staining method; format: organism-based; settings: in vivo, 336 h, dose 50-100 mg/kg, time 14 day
[23] = Acute toxicity in ICR female mouse assessed as effect on weight loss at 50 to 100 mg/kg, iv as single dose for 14 days; format: organism-based; settings: in vivo, 336 h, dose 50-100 mg/kg, time 14 day
[24] = Toxicity in C57BL/6J mouse assessed as bleeding risk at 19.5 to 39 mg/kg, iv measured after 15 mins by tail transection assay; format: organism-based; settings: in vivo, 0.25 h, dose 19.5-39 mg/kg
[25] = Toxicity in C57BL/6J mouse assessed as bleeding risk at 20 mg/kg, iv measured after 15 mins by tail transection assay; format: organism-based; settings: in vivo, 0.25 h
[26] = Toxicity in C57BL/6J mouse assessed as bleeding risk at 35 mg/kg, iv measured after 15 mins by tail transection assay; format: organism-based; settings: in vivo, 0.25 h
[27] = Toxicity in C57BL/6J mouse assessed as bleeding risk at 60 to 100 mg/kg, iv measured after 15 mins by tail transection assay; format: organism-based; settings: in vivo, 0.25 h, dose 60-100 mg/kg
[28] = target: T1, Coagulation factor XI; settings: dose 50.0 nM, time 1.0 hrs

T1 sequence (P03951 19-387 limits assumed): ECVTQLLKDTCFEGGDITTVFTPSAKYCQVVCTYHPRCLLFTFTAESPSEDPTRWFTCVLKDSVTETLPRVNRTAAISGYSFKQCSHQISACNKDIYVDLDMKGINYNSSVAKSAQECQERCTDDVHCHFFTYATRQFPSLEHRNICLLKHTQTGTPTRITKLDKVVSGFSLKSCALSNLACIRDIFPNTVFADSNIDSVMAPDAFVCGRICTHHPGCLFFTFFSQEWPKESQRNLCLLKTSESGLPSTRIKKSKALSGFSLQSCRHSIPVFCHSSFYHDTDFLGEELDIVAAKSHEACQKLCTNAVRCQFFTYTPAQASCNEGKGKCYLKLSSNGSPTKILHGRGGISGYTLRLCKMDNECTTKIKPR
T1 sequence (P03951 388-625 limits assumed): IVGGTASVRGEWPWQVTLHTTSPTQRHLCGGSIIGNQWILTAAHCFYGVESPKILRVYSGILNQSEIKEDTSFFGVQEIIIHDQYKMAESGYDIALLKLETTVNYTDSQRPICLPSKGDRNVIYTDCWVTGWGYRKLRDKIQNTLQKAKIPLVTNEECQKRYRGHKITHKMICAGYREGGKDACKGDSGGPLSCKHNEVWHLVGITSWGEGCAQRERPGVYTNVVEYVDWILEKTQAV
Chain of Plasma kallikrein (P03952 20-390 limits assumed): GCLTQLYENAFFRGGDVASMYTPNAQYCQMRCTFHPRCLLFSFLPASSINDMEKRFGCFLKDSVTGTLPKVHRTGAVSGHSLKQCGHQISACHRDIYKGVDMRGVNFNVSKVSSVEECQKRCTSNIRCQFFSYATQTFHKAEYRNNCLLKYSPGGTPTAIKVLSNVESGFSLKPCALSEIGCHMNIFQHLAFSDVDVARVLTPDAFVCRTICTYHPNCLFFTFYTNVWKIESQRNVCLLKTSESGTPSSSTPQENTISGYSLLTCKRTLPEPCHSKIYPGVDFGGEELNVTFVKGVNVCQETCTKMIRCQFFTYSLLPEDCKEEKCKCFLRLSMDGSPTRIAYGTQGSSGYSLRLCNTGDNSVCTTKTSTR
Chain of Plasma kallikrein (P03952 391-638 limits assumed): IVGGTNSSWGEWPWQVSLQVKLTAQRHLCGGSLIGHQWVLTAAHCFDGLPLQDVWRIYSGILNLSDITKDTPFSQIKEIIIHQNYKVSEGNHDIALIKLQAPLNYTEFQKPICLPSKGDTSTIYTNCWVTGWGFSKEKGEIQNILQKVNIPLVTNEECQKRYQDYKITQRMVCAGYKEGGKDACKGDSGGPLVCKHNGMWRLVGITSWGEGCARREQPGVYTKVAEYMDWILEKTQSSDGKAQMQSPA
Chain of Coagulation factor IX (Homo sapiens) (P00740 47-191 limits assumed): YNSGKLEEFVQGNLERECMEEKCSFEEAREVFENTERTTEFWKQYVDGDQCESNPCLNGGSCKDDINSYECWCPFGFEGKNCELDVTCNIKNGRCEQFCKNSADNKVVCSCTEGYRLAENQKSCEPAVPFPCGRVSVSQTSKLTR
Chain of Coagulation factor IX (Homo sapiens) (P00740 227-461 limits assumed): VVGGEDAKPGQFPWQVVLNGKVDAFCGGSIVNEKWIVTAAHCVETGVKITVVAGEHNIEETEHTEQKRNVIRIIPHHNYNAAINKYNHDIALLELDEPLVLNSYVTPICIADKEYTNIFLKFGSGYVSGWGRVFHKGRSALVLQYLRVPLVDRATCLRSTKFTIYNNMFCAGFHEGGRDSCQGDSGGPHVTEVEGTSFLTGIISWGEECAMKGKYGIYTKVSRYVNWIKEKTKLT
Chain of Coagulation factor X (P00742 41-179 limits assumed): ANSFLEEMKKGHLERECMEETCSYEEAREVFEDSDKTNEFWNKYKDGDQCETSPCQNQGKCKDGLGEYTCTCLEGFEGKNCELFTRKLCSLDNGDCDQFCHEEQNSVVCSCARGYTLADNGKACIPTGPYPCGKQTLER
Chain of Coagulation factor X (P00742 235-488 limits assumed): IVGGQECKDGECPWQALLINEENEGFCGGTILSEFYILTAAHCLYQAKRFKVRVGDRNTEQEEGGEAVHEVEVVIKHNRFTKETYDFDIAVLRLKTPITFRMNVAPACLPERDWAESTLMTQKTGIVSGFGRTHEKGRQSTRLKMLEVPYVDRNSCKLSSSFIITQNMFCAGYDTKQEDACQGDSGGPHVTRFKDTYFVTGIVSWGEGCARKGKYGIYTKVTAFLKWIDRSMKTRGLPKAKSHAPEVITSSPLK
Chain of Serine protease 1 (Homo sapiens) (P07477 whole entry): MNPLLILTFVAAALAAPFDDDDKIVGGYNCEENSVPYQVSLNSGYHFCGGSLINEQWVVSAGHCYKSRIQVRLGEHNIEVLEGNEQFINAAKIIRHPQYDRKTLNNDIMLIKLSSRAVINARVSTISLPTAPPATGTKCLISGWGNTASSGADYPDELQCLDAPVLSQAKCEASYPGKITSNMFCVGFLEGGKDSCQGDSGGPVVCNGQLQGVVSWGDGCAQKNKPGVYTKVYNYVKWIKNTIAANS

SMILES: O=C(/C=C/c1cc(Cl)ccc1-n1cnnn1)N[C@@H](CC(=O)N1CCN(c2ccccc2)CC1)C(=O)Nc1ccc(C(=O)O)cc1
- IC50 [1]: 0.0142 µM
- IC50 [2]: 27.9 µM
- Ratio IC50 [3]: 1960
- IC50 [4]: 340 µM
- inhibition [5]: inactive
- inhibition [6]: inactive
- inhibition [7]: inactive
- IC50 [8]: 460 µM
- Ratio IC50 [9]: > 5000
- Ratio IC50 [10]: > 5000
- Ratio IC50 [11]: > 5000
- Ratio IC50 [12]: > 5000
- Ratio IC50 [13]: > 5000
- AUC(0-t) [14]: 18300 ng·h/mL
- clearance [15]: 9.22 mL/min/kg
- AUC(0-inf) [16]: 18400 ng·h/mL
- Vd [17]: 0.969 L/kg
- MRT last [18]: 19.2 min
- Activity [19]: Active
- Activity [20]: inactive
- Activity [21]: Non-Toxic
- Activity [22]: Non-Toxic
- Activity [23]: Non-Toxic
- Activity [24]: Non-Toxic
- Activity [25]: Non-Toxic
- Activity [26]: Non-Toxic
- Activity [27]: Non-Toxic
- inhibition [28]: 59.4%
